What is called IC50 is the concentration that inhibits the measured activity by half. What is called EC50 is the concentration needed to bring the measured effect to its halfway point. Broadly, the AC50 is the midpoint of the concentration-response curve, whichever way the signal moves. The CC50 is the concentration that lowers cell viability or growth by half.

The text below walks through data of ChEMBL document CHEMBL1201862, “PubChem BioAssay data set” (2004).

In assay [1] the target is 1-phosphatidylinositol 4,5-bisphosphate phosphodiesterase gamma-1 (Homo sapiens, UniProt P19174). Briefly: Counterscreen for inhibitors of phospholipase C isozymes (PLC-B3): Fluorescence-based biochemical high throughput dose response assay to identify inhibitors of phospholipase C isozymes (PLC-gamma1). (In general: Counterscreens check selectivity or assay interference.)

For assay [2], the target named is 1-phosphatidylinositol 4,5-bisphosphate phosphodiesterase beta-3 (Homo sapiens, UniProt Q01970). In words: Fluorescence-based biochemical high throughput dose response assay to identify inhibitors of phospholipase C isozymes (PLC-B3).
The nature of assay [3]: cells. Type of assay: functional, cell-based.
Assay [4] concerns the target T1, Oxysterols receptor LXR-beta (Homo sapiens, UniProt P55055).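 Also: agonist activity at LXR measured by a cell-based luminescence readout across a dose range, run as a counterscreen for daf-12 agonists; HEK293 cells with Gal4-LXR fusion and GAL4-driven luciferase reporter; potency for activation of Gal4-LXR reporter so compounds are agonists.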
T1 sequence (P55055 whole entry): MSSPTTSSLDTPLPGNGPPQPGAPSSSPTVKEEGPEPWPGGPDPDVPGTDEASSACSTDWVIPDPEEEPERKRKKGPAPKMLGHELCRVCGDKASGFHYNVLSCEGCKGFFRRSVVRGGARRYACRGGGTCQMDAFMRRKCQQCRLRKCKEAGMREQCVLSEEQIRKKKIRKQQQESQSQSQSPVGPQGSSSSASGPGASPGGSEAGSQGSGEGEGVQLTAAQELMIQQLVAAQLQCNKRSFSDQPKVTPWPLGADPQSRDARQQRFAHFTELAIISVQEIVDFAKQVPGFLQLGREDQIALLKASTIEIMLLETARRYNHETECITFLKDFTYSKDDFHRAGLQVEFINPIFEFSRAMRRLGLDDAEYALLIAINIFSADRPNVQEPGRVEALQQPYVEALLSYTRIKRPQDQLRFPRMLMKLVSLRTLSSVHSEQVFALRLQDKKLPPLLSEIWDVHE
The class given is functional, cell-based.

Assay [5] can be described thus: cells. Type of assay: functional, cell-based. This is another data set of the same source.
Assay [6] can be described thus: OV-90 cell viability loss – plate reader, dry powder, SA8, PAX8 inhibitor project, dose response (AID 743149). Type of assay: functional, cell-based.
Assay [7] can be described thus: inhibitors acting on PAX2 in cells – cell-based, plate reader, dry powder samples, selectivity assay for PAX8 inhibitor project, dose response (AID 743048).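 Also: HEK293 cells carrying a WT1 promoter luciferase reporter driven by expressed Pax2; potency is for inhibition of Pax2 driven reporter signal.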 Type of assay: functional.
A short description of assay [8]: A2780 cell killing – plate reader, dry powder samples, cytotoxicity control, dose response (AID 743046). Type of assay: functional, cell-based.
A short description of assay [9]: OVCAR-3 cell viability loss – plate reader, dry powder samples, PAX8 inhibitor project, dose response (AID 743044). The class given is functional, cell-based.
Assay [10] can be described thus: PAX8-dependent cell viability loss – plate reader, dry powder, dose response (AID 743049). The class given is functional, cell-based.
Assay [11] in a line: PAX5 cellular inhibition readout – cell-based, plate reader, dry powder samples, selectivity assay for PAX8 inhibitor project, dose response (AID 743047).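 Also: HEK293 cells carrying a Pax5 driven CD19 promoter luciferase reporter; potency of inhibitors that lower reporter luminescence.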 Type of assay: functional.
The target in another assay is Paired box protein Pax-8 (Homo sapiens, UniProt Q06710). Briefly: PAX8 transcriptional activity inhibition in RMG-I – RMG-I cells, luciferase, cherry-pick, dose response (AID 687027).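 Also: luciferase reporter driven by Pax8 target thyroperoxidase promoter measured by SteadyGlo luminescence.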 The class given is functional, cell-based.
The nature of assay [12]: OVCAR8 cell viability loss – plate reader, dry powder samples, PAX8 project, dose response (AID 743197). The class given is functional, cell-based. To be noted: OVCAR-8.
Assay [13] is described as follows: COV434 cell viability loss – plate reader, dry powder, SA7, cytotoxicity control for PAX8 inhibitor project, dose response (AID 743145). Type of assay: functional, cell-based.
Assay [14] is described as follows: COV362 cell viability loss – plate reader, dry powder, SA12, cytotoxicity control for PAX8 inhibitor project, dose response (AID 743144). The class given is functional, cell-based.
Assay [15] can be described thus: viability loss in HepG2 hepatoma cells – cell-based, ATP luminescence, cherry-pick, activator set 2, cytotoxicity control, dose response (AID 1053143). The class given is functional.
In assay [16] the target is T2, DNA repair protein RAD52 homolog (Homo sapiens, UniProt P43351).
T2 sequence (P43351 whole entry): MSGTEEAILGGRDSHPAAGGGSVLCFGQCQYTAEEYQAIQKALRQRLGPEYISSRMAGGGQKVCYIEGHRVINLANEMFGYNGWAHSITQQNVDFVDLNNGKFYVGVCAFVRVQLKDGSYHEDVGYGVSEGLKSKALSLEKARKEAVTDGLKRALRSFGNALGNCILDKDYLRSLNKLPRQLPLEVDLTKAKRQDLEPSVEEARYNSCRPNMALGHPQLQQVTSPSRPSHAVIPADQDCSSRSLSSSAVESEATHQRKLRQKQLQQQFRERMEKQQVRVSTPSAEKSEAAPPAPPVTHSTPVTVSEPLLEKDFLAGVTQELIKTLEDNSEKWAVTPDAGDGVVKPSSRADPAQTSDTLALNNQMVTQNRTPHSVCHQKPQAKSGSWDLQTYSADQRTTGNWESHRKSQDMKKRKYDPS
Type of assay: functional, biochemical.

Assay [17] is described as follows: HGIII-sPLA2 enzyme inhibition potency – biochemical, QFRET, IC50, dose response (AID 743457).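 Also: green fluorescence rise as the enzyme cleaves BODIPY PC-A2 in liposomes.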
Assay [18] addresses T3, Histone-lysine N-methyltransferase NSD2 (Homo sapiens, UniProt O96028).
T3 sequence (O96028 whole entry): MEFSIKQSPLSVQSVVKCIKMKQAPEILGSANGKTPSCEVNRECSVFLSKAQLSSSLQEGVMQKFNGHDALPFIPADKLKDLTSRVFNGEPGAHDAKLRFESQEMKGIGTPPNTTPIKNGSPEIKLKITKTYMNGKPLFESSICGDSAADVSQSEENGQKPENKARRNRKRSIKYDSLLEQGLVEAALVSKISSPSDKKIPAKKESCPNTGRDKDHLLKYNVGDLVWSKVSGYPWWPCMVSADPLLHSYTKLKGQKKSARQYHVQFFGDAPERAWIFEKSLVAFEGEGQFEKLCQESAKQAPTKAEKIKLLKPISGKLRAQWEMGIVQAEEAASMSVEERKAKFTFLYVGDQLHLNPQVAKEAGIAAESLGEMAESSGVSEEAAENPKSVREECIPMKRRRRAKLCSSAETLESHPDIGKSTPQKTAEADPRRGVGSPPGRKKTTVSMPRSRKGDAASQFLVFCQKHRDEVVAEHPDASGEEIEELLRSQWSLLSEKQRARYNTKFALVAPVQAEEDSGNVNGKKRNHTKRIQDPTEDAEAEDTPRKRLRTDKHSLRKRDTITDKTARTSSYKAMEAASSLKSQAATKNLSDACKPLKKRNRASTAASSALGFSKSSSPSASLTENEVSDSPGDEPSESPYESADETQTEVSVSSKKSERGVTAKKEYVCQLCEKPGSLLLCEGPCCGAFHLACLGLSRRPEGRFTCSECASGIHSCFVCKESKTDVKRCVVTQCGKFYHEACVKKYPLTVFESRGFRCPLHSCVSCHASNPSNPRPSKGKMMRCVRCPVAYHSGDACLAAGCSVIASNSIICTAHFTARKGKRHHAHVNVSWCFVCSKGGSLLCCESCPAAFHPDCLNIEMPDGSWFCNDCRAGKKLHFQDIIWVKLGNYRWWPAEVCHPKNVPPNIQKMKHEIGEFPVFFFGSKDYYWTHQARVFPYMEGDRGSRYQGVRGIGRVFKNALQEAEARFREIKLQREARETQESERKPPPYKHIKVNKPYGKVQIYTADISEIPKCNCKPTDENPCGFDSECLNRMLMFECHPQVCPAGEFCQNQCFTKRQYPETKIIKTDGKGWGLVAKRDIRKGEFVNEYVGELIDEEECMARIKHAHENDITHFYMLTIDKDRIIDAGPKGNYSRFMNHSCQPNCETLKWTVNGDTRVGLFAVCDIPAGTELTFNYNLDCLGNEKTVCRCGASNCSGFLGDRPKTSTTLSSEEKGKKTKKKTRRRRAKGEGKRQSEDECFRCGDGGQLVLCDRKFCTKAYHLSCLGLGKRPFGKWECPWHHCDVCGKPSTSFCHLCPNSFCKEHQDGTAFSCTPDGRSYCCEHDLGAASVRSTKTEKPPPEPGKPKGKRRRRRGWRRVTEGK
The class given is biochemical.

Assay [19] has as its target T4, Rac GTPase-activating protein 1 (Homo sapiens, UniProt Q9H0H5).
T4 sequence (Q9H0H5 whole entry): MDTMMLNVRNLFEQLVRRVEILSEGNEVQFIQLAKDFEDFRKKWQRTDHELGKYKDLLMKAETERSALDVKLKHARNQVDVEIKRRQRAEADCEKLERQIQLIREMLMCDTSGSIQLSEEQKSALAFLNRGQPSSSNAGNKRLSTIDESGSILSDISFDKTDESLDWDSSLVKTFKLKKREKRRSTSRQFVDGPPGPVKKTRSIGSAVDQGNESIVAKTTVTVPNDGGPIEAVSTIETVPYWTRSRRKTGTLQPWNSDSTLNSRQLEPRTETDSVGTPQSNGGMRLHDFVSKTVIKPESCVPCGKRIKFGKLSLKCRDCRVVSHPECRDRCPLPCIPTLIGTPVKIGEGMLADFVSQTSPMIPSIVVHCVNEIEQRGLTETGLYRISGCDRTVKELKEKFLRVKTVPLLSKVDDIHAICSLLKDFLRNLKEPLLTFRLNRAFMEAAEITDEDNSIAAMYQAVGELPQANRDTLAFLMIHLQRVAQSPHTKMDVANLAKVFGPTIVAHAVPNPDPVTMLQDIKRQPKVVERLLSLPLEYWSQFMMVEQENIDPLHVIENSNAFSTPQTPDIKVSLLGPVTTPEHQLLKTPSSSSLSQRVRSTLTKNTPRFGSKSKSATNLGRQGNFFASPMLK
In words: blockers of MgcRacGAP-driven Rac1 GTP hydrolysis – biochemical, ADP Hunter fluorescence, primary and confirmatory, confirmation (AID 624330). Type of assay: functional.

The target of another assay is Nonstructural protein 1 (Influenza A virus, UniProt Q194T2). The class given is functional, Influenza A virus (A/California/07/2009(H1N1)).
The nature of assay [20]: viability loss in HeLa cells – cytotoxicity control for MgcRacGAP inhibitor project, dose response (AID 624300). Type of assay: functional.
Assay [21] can be described thus: blockers of bursicon-stimulated LGR2 cAMP reporter – cell-based, HEK293, CRE-luciferase reporter, cherry pick, set 2, dose response (AID 743343).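 Also: transfected cells were stimulated with diluted bursicon conditioned medium after compound addition.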 Type of assay: functional. (In general: In a reporter assay the amount or activity of a reporter protein is the signal.)
The nature of assay [22]: blockade of melanocortin 4 receptor signaling – cell-based, plate reader, cherry pick, counter-screen for LGR2 antagonist project, dose response (AID 743444).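 Also: transfected HEK 293 cells stimulated with alpha-MSH peptide; potency of inhibitors of the alpha-MSH evoked signal.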 Type of assay: functional.
Assay [23] can be described thus: A549 cell cytotoxicity, dose response, cytotoxicity control, plate reader, cherry-pick, antagonist series (AID 743412). The class given is functional, cell-based.

Each structure is given as a SMILES string. Active and inactive are the calls of the source. A value given as a limit tells only on which side of the number the result lay.

Chain of 1-phosphatidylinositol 4,5-bisphosphate phosphodiesterase beta-3 (Q01970 whole entry): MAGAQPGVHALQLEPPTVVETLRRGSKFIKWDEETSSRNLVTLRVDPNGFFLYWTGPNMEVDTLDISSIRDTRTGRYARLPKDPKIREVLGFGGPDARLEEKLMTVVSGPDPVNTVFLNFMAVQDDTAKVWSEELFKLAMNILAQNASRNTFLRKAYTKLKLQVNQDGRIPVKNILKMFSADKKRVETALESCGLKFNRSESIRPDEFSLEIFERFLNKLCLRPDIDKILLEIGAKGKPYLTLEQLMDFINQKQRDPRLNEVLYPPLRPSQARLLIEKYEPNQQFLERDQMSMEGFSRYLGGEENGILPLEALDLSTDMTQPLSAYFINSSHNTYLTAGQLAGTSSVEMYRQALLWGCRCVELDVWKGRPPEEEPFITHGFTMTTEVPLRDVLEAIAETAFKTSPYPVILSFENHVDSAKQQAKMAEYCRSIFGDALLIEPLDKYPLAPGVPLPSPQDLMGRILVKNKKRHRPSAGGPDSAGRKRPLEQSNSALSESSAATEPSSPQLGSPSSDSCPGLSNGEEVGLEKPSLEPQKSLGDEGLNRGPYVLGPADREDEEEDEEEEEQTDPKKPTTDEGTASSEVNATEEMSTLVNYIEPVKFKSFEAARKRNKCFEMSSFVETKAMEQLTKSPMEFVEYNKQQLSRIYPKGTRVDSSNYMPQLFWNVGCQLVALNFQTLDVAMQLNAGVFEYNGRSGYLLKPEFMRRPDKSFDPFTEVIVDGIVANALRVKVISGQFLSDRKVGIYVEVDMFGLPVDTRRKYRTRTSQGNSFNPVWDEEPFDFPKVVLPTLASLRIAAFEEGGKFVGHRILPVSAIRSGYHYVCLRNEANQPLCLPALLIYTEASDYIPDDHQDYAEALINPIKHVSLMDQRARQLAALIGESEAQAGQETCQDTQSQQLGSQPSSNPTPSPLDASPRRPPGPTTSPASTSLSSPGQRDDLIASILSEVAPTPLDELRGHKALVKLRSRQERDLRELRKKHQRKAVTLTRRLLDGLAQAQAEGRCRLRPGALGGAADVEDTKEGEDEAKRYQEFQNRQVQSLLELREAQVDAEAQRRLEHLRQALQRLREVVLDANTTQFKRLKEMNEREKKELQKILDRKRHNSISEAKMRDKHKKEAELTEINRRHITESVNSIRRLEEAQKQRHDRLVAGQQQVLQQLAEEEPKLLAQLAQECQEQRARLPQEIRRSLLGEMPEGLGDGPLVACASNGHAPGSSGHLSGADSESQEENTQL
Chain of 1-phosphatidylinositol 4,5-bisphosphate phosphodiesterase gamma-1 (P19174 whole entry): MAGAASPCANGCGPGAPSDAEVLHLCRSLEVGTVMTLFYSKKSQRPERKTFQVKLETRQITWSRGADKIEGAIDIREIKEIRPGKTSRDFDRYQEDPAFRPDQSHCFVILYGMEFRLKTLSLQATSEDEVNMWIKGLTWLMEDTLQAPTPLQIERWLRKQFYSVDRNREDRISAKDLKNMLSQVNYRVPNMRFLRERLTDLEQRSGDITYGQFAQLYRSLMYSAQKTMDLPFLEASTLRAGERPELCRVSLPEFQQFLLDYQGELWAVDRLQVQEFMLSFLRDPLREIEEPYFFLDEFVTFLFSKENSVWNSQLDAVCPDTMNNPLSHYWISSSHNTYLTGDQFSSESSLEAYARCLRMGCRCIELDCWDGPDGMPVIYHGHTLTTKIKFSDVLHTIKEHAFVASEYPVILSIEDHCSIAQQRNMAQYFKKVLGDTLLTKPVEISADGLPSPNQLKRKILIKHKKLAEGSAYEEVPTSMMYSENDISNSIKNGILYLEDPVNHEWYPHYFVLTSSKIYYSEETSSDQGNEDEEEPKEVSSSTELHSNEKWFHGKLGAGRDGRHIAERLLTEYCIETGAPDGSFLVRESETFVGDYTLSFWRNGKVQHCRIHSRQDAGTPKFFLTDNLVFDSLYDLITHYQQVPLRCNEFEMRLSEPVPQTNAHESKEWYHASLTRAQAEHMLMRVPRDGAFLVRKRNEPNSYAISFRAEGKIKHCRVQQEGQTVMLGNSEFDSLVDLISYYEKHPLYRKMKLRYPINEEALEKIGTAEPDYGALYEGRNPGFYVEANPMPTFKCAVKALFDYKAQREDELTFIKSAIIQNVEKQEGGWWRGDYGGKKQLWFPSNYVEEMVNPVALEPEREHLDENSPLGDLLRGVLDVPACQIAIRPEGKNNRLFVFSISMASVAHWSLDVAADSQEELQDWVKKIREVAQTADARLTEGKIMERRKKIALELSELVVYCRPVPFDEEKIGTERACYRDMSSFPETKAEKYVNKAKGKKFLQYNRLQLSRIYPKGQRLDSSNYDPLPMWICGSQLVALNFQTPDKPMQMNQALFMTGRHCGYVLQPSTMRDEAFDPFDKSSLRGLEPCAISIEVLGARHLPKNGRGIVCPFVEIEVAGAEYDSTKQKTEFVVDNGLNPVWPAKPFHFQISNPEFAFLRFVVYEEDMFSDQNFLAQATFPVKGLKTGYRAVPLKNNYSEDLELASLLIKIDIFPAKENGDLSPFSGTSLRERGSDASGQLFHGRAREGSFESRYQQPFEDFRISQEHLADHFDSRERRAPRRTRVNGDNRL
Chain of Paired box protein Pax-8 (Q06710 whole entry): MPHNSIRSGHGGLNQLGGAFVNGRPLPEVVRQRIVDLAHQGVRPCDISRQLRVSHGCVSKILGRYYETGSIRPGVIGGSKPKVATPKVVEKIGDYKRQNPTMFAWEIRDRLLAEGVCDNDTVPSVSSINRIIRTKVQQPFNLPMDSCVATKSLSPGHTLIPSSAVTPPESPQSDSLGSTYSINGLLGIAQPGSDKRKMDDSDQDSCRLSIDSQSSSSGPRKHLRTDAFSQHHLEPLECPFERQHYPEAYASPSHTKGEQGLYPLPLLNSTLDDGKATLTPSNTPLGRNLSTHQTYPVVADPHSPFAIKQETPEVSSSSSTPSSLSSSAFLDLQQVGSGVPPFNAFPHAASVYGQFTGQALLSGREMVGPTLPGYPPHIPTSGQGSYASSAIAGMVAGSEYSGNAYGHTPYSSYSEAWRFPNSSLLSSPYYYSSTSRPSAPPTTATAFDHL
Chain of Nonstructural protein 1 (Q194T2 whole entry): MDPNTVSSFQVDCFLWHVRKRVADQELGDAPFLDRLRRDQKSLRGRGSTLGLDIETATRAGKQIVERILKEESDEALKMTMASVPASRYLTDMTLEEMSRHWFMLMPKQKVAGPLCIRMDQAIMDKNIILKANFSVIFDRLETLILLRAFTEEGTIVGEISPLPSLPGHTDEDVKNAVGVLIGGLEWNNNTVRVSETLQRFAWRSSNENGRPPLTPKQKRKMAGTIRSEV

On to `COC(=O)C(C)(C)c1cccnc1C#N`, for which the results for the IC50 in assay [1] and in [2] were 2.7 µM (active) and > 122 µM (inactive), respectively.

Regarding `CSc1ccc(/C=N/Nc2ccc(Cl)c(C(=O)O)c2)cc1`, the EC50 is > 350 µM (not active) in the assay “cells [3]”, > 67.5 µM (inactive) in assay [4] and 7.23 µM (active) in the assay “cells [5]”.

With `CCN(CC)S(=O)(=O)c1ccc(C(=O)OCC(=O)Nc2ccc(-c3nc4ccc(C)cc4s3)cc2)cc1`, in assay [4], the EC50 was > 67.5 µM (inactive).

For the compound `CCCNC(=O)C[C@H]1CC[C@H]2[C@@H](COc3ccc(NC(=O)c4cncs4)cc3C(=O)N2C)O1`, the IC50 is 59.1 µM (inactive) in assay [1] and 55.4 µM (inactive) in assay [2].

With `CCCC#Cc1ccc([C@H]2[C@@H](C#N)N(C(=O)C3CCCCC3)[C@H]2CO)cc1`, the AC50 in [6] was 28 µM (active); in [7], 7.11 µM (active); in assay [8], 23.9 µM (active); in assay [9], 29.6 µM (active); in assay [10], 13.2 µM (active); in [11], 3.5 µM (active). Besides, the AC50 is 12.7 µM (active) on Paired box protein Pax-8, 30.3 µM (active) in assay [12], 30 µM (active) in assay [13] and 49.9 µM (active) in assay [14].

For the compound `CC(=O)C(=CNc1cc(-c2ccc(C)cc2)nn1-c1ccccc1)C(C)=O`, the AC50 in [15] was 26 µM (active).

For the compound `CC[n+]1ccc(/C=C/c2ccc(N(C)C)cc2)c2ccccc21`, the half-maximal activity concentration (AC50) in assay [16] was 2.21 µM (active); in assay [18], 13.4 µM (active). The IC50 was 24.6 µM (inactive) in assay [17], 36.1 µM (active) in assay [19] and 9.07 µM (active) on Nonstructural protein 1. For the same compound, the CC50 in assay [20] is 49.2 µM (active).

Regarding `Cc1cc2cc(CCNC(=O)c3cccs3)c(O)nc2cc1C`, in assay [15], the AC50 is 26 µM (active).

As to `CN1c2ccc(-c3ccc(F)cc3)cc2[C@H]2[C@H](CCN2C(=O)Nc2ccc(F)cc2)[C@H]1CO`, the AC50 is 18.6 µM (active) in assay [21], 18.4 µM (active) in assay [22] and 24.3 µM (active) in assay [23].
